From US12629370B2, “Treatment of prostate cancer” (Sumitomo Pharma Co., Ltd., priority 2016, dated 2026)
“And” between values parts separate entries of the source, which are not always exact repeats. Identical values can stand only once.

How the values were obtained:
serum testosterone = assay: Example 7: serum testosterone lowering in healthy men; assay type: in vivo, human; settings: for mean serum testosterone at end of 16 days: baseline 10.40 nmol/L
Experimental: (§1) FSH, DHT, and insulin-like growth factor 1 (IGF-1; Parts 3 and 4 only) were measured in a subset of samples. Serum testosterone was assayed using a conventional immunoassay for screening (LLOQ=0.4 nmol/L). A validated LC/MS/MS method, with an LLOQ of 0.173 nmol/L and a ULOQ of 10.425 nmol/L, was used for all subsequent baseline (i.e., the subject's serum hormone levels prior to treatment commencing) and postdose measurements.
Pharmacodynamic measures included serum concentrations of testosterone, DHT, LH, and FSH. In Part 2, the number and percentage of subjects with average serum testosterone levels less than 0.69 nmol/L occurring during the second week of dosing were tabulated. In Parts 3 and 4, the number and percentage of subjects with serum testosterone levels consistently less than 0.69 nmol/L from Day 14 through Day 28 were tabulated.

serum FSH = assay: Example 7: serum FSH in healthy men; assay type: in vivo, human
Experimental: as §1

FIG. 23 = assay: FIG. 23
Source text: Table printed on a drawing sheet, FIG. 23
First reader's note: The rows 'Plasma' and 'Urine' are section heads (matrix); the sheet explains neither the footnote marks a and b nor the values in brackets.

[1] = tested on: patients with intermediate-risk prostate cancer; assay: Example 9: quality of life (EORTC QLQ-C30, QLQ-PR25, AMS); assay type: in vivo, human
Experimental: (§2) Eligible male patients were aged ≥18 years with a histologically confirmed diagnosis of localized, intermediate-risk prostate cancer, for whom 6-month neoadjuvant and adjuvant androgen deprivation therapy (ADT) to external beam radiation therapy (EBRT) was indicated. The criteria for establishing intermediate-risk prostate cancer included the presence of one of the following, without any high-risk feature: T2b-T2c disease, Gleason score 7, or prostate-specific antigen (PSA) 10-20 ng/mL. Additional inclusion criteria included: EBRT scheduled to begin ≥12 weeks after baseline visit; screening serum testosterone >150 ng/dL (5.2 nmol/L); screening PSA concentration >2 ng/ml; body mass index ≥18.0 at screening or baseline (i.e., the subject's BMI prior to treatment commencing); Eastern Cooperative Oncology Group performance status of 0 or 1 at screening. Based on investigator discretion and clinical assessment of the patient's overall medical and disease status, participation was allowed for older patients with high-risk disease (e.g., based on Gleason score or tumor status) who were deemed likely to benefit from 6 months of neoadjuvant/adjuvant ADT. Most patients had intermediate-risk disease. However, a few patients, based on Gleason score or tumor, node, and metastasis staging system, were technically of higher than intermediate risk.
(§3) Both treatment arms received treatment for 24 weeks. Patients remained on treatment for at least 12 weeks before the start of external beam radiation treatment (EBRT), which was initiated for most patients between Week 13, Day 1 and Week 15, Day 1. EBRT began no later than day 1, week 17.
Quality of Life (QoL) was assessed via the core 30-item European Organisation for Research and Treatment of Cancer quality of life questionnaire (EORTC QLQ-C30), the 25-item prostate cancer module EORTC questionnaire (EORTC QLQ-PR25), and the aging male survey (AMS). QoL assessments were completed at screening, on day 1 of weeks 1, 5, 13, and 25, and at weeks 29, 33, and 37.

PSA [2] = assay: Example 9: PSA; assay type: in vivo, human
Experimental: as §2, §3
Patients were evaluated every 4 weeks during the treatment period (including day 1, week 25), at end of treatment (defined as week 29), during follow-up (week 33), and at end of study (EOS).
Samples for testosterone, luteinizing hormone (LH), FSH, and PSA concentrations were taken at screening, on day 1 of the first week (additionally days 2 and 4 for testosterone and LH), and on day 1 of weeks 2, 3, 5, 9, 13, 17, 21, 25, 29, 33, and 37 thereafter. […] Suppression of FSH was less profound than that of LH, but consistent with the literature, and was greater than that observed with GnRH agonists.

PSA [3] = assay: Example 8: PSA response; assay type: in vivo, human
Source text: Eligible men were aged ≥18 years with a histologically confirmed diagnosis of prostate adenocarcinoma, and were candidates for ADT for the management of hormone-sensitive prostate cancer with one of the following clinical disease states: advanced localized disease not suitable for primary surgical or radiation therapy; evidence of PSA biochemical or clinical relapse following primary surgery or radiation therapy of curative intent; or newly diagnosed metastatic disease that was asymptomatic and without visceral involvement. Additional inclusion criteria at screening included: eugonadal serum testosterone >150 ng/dl (5.2 nmol/L); serum PSA concentration >2 ng/ml (or, when applicable, >0.2 ng/ml following radical prostatectomy or >2 ng/mL above the post-radiotherapy nadir following radiotherapy); body mass index ≥18.0 at screening and/or baseline (i.e., the subject's BMI prior to treatment commencing); and Eastern Cooperative Oncology Group (ECOG) performance status of 0 or 1. Patients with advanced, localized MON1 or M1 disease with clinically significant symptoms or visceral involvement, who required immediate GnRH therapy, chemotherapy, or radiation therapy were not eligible for the trial.
PSA levels were measured at each visit.

[4] = from baseline (day 1) to week 25

CONC(=O)Nc1ccc(-c2sc3c(c2CN(C)C)c(=O)n(-c2ccc(OC)nn2)c(=O)n3Cc2c(F)cccc2F)cc1 [Compound 1, N-(4-(1-(2,6-difluorobenzyl)-5-((dimethylamino)methyl)-3-(6-methoxy-3-pyridazinyl)-2,4-dioxo-1,2,3,4-tetrahydrothieno[2,3-d]pyrimidin-6-yl)phenyl)-N′-methoxyurea]
suppression of serum LH and testosterone during the second week (serum testosterone; 20 mg QD, 14 days): insufficient in maintaining adequate suppression | castration outcome (serum testosterone; 40 mg QD, 28 days): ineffective in maintaining castration between Days 14 and 28 | castration outcome (serum testosterone; 60 mg QD, 28 days): intermediate to those of 40 and 80 mg | time to reach castrate level (serum testosterone; 80 mg once daily): up to 21 days | castration outcome (serum testosterone; 320 mg day 1, 160 mg day 2, 40 mg day 3 to 28): did not maintain castrate level | castration outcome (serum testosterone; 360 mg Day 1 and 40 mg day 2 to 14): rapid castration level and sustained castration level | time to castrate levels (<50 ng/dL) (serum testosterone; 360 mg single dose): ≤ 24 h | effective medical castration (serum testosterone; 40 to 180 mg daily (14 days) and 80 to 160 mg daily (28 days)): consistently achieved | profound castration threshold (average serum testosterone <0.69 nmol/L) (serum testosterone; 14 days at 40, 80 and 180 mg): achieved | castration during third and fourth weeks (serum testosterone; 28 days, 160 mg (Part 3) and 80 mg (Part 4)): effective at achieving medical (<1.73 nmol/L) and profound (<0.69 nmol/L) castration | mean serum testosterone at end of 16 days (serum testosterone; Part 2, 80 mg): 0.3565 nmol/L | mean serum testosterone at end of 16 days (serum testosterone; Part 2, 180 mg): 0.4320 nmol/L | minimal fully effective / recommended maintenance dose for sustained medical castration (serum testosterone; in vivo): ≥ 80 mg QD | effective medical castration (serum testosterone; maintenance doses of 80, 160 and 180 mg QD): consistently achieved | duration of mean serum testosterone suppression (serum testosterone; single doses of 80, 120, 180 and 360 mg): maintained through 36 hours postdose | time postdose at which mean serum FSH began to decrease (serum FSH; Part 1 single doses 80-360 mg): 2 h | time postdose of lowest mean serum FSH (serum FSH; Part 1 single doses 80-360 mg): 48 h | mean serum FSH at end of 16 days (serum FSH; Part 2, 80 mg, baseline 6.07 IU/L): 0.67 IU/L | mean serum FSH at end of 16 days (serum FSH; Part 2, 180 mg, baseline 3.88 IU/L): 0.33 IU/L | CLr (L/h) (FIG. 23): 6.92 (29.5) L/h and 5.51 (26.7) L/h and 6.42 (25.0) L/h and 7.66 (17.4) L/h and 7.43 (16.2) L/h | Fe (%) (FIG. 23): 1.44 (31.8) % and 1.35 (40.0) % and 1.76 (38.6) % and 1.89 (20.2) % and 2.88 (45.6) % | t1/2(h) (FIG. 23): 50.6 (20.2) h and 49.4 (30.6) h and 36.5 (17.4) h | Hormonal treatment-related symptoms, Mean (SD) change [1, 4]: 13.4 (12.1) | Sexual activity, Mean (SD) change [1, 4]: −19.7 (29.4) | Global health/QoL, Mean (SD) change ([1]; from baseline to week 36 (EOS)): −7.7 (17.8) | Hormonal treatment-related symptoms, Mean (SD) change ([1]; from baseline to week 36 (EOS)): 8.5 (11.3) | Sexual activity, Mean (SD) change ([1]; from baseline to week 36 (EOS)): −7.3 (30.0) | Global health/QoL, Mean (SD) change ([1]; from week 25 to week 36): 2.3 (16.6) | Hormonal treatment-related symptoms, Mean (SD) change ([1]; from week 25 to week 36): −5.0 (10.3) | Sexual activity, Mean (SD) change ([1]; from week 25 to week 36): 12.1 (21.8) | QOL (AMS and sexual activity scores) from EOT through EOS ([1]; in vivo): appeared to improve more in the Compound 1 than the degarelix group | Median PSA (PSA [2]; Baseline): 7.3 µg/L | Median PSA (PSA [2]; Week 24): 0.07 µg/L | Median PSA (PSA [2]; Week 28/EOT visit): 0.07 µg/L | Median PSA (PSA [2]; Week 32/follow-up): 0.2 µg/L | Median PSA (PSA [2]; Week 36/EOS): 0.2 µg/L | average PSA level (PSA [2]; by Week 13 Day 1 visit): < 0.2 ng/mL | patients achieving PSA values less than 0.2 ng/ml (PSA [2]; by the end of 12 weeks): 6 of 30 | PSA % responses in most patients (PSA [2]; end of 8 weeks of dosing, before radiation therapy): exceed 89% | CLr (L/h) (FIG. 20): 7.57 (13.4) L/h and 8.11 (12.7) L/h and 9.24 (10.0) L/h and 8.64 (10.8) L/h | Fe (%) (FIG. 20): 2.95 (41.5) % and 2.05 (33.4) % and 1.46 (38.7) % | t1/2(h) (FIG. 20): 20.8 (5.2) h and 21.3 (20.0) h and 21.7 (8.9) h | Median time from first dose to PSA nadir (PSA [3]; 80 mg QD): 16.1 Weeks | Median time from first dose to PSA nadir (PSA [3]; 120 mg QD): 12.3 Weeks | patients with ≥50% serum PSA reduction (PSA [3]; after 4 weeks of treatment): Eighty-three percent | patients with ≥90% serum PSA reduction (PSA [3]; after 4 weeks of treatment): Eight percent | average PSA level (PSA [3]; by Week 13 Day 1 visit): less than 0.4 ng/ml | average PSA level (PSA [3]; by Week 21 Day 1 visit): less than 0.2 ng/ml | PSA % responses in most patients (PSA [3]; end of 24 weeks dosing): exceed 90% | PSA response following initiation of treatment compared with leuprorelin (PSA [3]; in vivo): more rapid
